Values of other authors in patent US4000310A, “Pharmaceutical compositions containing 6-methyl-3,4-diphenyl-3,4,5,6-tetrahydro-2-pyrone or derivatives thereof” (Union Chimique Continentale-U.C.C, priority 1974, dated 1976).

Tested on: animals
Details: caffeine, general statement; cited from earlier work

In the case of `Cn1c(=O)c2c(ncn2C)n(C)c1=O` [caffeine], the sleep inhibiting effect is given as “caffeine does”.
